Experimental findings from patent publication US11191762B2, “Alkyl substituted triazole compounds as agonists of the APJ Receptor” (priority 2016, dated 2021) are described below.

For one assay, the system named is heart failure rats. In words: Cardiac function with ACE inhibitor captopril and APJ agonist in heart failure rats in vivo. Also noted: species or system rat. The settings on record: captopril alone, acute settings. From the text: The interaction between […] (ACE2) and Apelin biology is complicated. To investigate the interaction between the Apelin-APJ and ACE signalling pathways, we examined the improvement in cardiac function with APJ small molecule agonists in the presence of ACE inhibitor captopril in heart failure rats in vivo. […] However, in the presence of an APJ agonist, there was a shift in potency to the left with marked improvement in contractility and ejection fraction without changes in heart rate. These findings provide a new reference for the understanding of the regulation of ACE2 for the renin angiotensin aldosterone system (RAAS), independent of AT1R signaling and offer new potential drug targets for the treatment of diseases such as hypertension and heart failure. This work clearly establishes that combination of an agonist of the APJ receptor with an ARB such as losartan and/or with an ACE inhibitor such as captopril which may play an important role in providing greater efficacy in treating heart failure patients, for example in improving contractility and ejection fraction without changing the heart rate.

Assay [1] deals with human APJ-AT1R (angiotensin Type 1) double stable CHO cell line (Homo sapiens (Human), UniProt P35414). Put plainly: IP1 accumulation (TR-FRET), AngII cooperativity, APJ-AT1R double stable cells. It counts as cell-based. The settings on record: APJ small molecule agonists in the presence of AngII. For orientation: TR-FRET usually uses a lanthanide donor and a delayed reading to cut background.
Sequence of human APJ-AT1R (angiotensin Type 1) double stable CHO cell line (P35414 whole entry): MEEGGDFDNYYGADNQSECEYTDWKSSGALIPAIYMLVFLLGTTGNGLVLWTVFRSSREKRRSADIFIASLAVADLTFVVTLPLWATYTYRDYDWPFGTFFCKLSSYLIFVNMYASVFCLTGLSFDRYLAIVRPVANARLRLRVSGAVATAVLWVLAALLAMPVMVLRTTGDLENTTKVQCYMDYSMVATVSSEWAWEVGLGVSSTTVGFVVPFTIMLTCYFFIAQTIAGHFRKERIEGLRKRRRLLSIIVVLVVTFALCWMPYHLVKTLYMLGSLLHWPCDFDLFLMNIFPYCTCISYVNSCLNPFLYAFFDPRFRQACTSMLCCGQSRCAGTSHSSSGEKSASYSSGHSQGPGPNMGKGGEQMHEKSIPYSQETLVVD
Description: Single and double stable recombinant cell lines were generated for human APJ and the AT1R receptor in CHO K1 cells tagged either with FLAG or hemagglutinin (HA) tag. Briefly, the CHO-K1 APJ/AT1R cells were seeded in culture medium of DMEM-F12 and 10% FBS at a density of 15 k/well in a 96 well plate overnight. The next day, the culture medium was replaced with medium containing no serum for 4 h. The compound AngII at a range of concentrations (1 pM-10 μM) with or without different concentrations of APJ agonists were diluted in stimulation buffer and added to the cell plate. The plate was sealed and incubated for 1 h. This was followed by addition of IP-d2 conjugate followed by europium cryptate antibody conjugate into the wells. The plate was sealed, followed with incubation for 2 h at RT. Time-resolved fluorescence resonance energy (TR-FRET) at 620 nm and 665 nm was measured after 2 h with an Envision reader. The signal ratios and delta F were calculated and the amount of IP1 produced was inversely proportional to the TR-FRET ratio, 665/620 nm.

Turning to `C[C@H](CS)C(=O)N1CCC[C@H]1C(=O)O` [Captopril, captopril], the “contractility or ejection fraction” value in the assay on heart failure rats is recorded as “does not show a marked improvement in contractility or ejection fraction”. For the compound `CCCCc1nc(Cl)c(CO)n1Cc1ccc(-c2ccccc2-c2nn[nH]n2)cc1` [losartan], the “effect of losartan on APJ agonist induced cooperativity” value in assay [1] is given as “relieved this cooperativity”.
